Calls of active or inactive are those of the source.
How the values were obtained:
NCI-H1650 [1] = assay: Inhibition of EGFR mutant-mediated AKT phosphorylation in human NCI-H1650 cells harboring EGFR-mutant at 30 and 60 uM measured after 24 hrs by immunoblotting analysis; format: cell-based
NCI-H1975 [2] = assay: Antiproliferative activity against human NCI-H1975 cells harboring EGFR-mutant assessed as cell viability measured after 24 hrs; format: functional, cell-based
NCI-H1650 [3] = assay: Antiproliferative activity against human NCI-H1650 cells harboring EGFR-mutant assessed as cell viability measured after 24 hrs; format: functional, cell-based
A549 [4] = assay: Antiproliferative activity against human A549 cells harboring wild-type EGFR assessed as cell viability at 30 and 60 uM measured after 24 hrs; format: functional, cell-based
NCI-H460 [5] = assay: Antiproliferative activity against human NCI-H460 cells harboring wild-type EGFR assessed as cell viability at 30 and 60 uM measured after 24 hrs; format: functional, cell-based
NCI-H1975 [6] = assay: Induction of apoptosis in human NCI-H1975 harboring EGFR-mutant cells assessed as cell death measured after 24 hrs by Annexin-V/PI staining based analysis; format: functional
NCI-H1650 [7] = assay: Induction of apoptosis in human NCI-H1650 cells harboring EGFR-mutant assessed as cell death measured after 24 hrs by Annexin-V/PI staining based analysis; format: functional
A549 [8] = assay: Induction of apoptosis in human A549 cells harboring wild-type EGFR assessed as cell death at 30 and 60 uM measured after 24 hrs by Annexin-V/PI staining based analysis; format: functional
NCI-H460 [9] = assay: Induction of apoptosis in human NCI-H460 cells harboring wild-type EGFR assessed as cell death at 30 and 60 uM measured after 24 hrs by Annexin-V/PI staining based analysis; format: functional
NCI-H1975 [10] = assay: Increase in cleaved caspase3 level in human NCI-H1975 cells harboring EGFR-mutant at 30 and 60 uM by immunoblotting analysis; format: functional, cell-based
NCI-H1650 [11] = assay: Increase in cleaved caspase3 level in human NCI-H1650 cells harboring EGFR-mutant at 30 and 60 uM by immunoblotting analysis; format: functional, cell-based
A549 [12] = assay: Increase in cleaved caspase3 level in human A549 cells harboring wild-type EGFR at 30 and 60 uM by immunoblotting analysis; format: functional, cell-based
NCI-H460 [13] = assay: Increase in cleaved caspase3 level in human NCI-H460 cells harboring wild-type EGFR at 30 and 60 uM by immunoblotting analysis; format: functional, cell-based
NCI-H1975 [14] = assay: Increase in PARP level in human NCI-H1975 cells harboring EGFR-mutant at 30 and 60 uM by immunoblotting analysis; format: functional, cell-based
NCI-H1650 [15] = assay: Increase in PARP level in human NCI-H1650 cells harboring EGFR-mutant at 30 and 60 uM by immunoblotting analysis; format: functional, cell-based
A549 [16] = assay: Increase in PARP level in human A549 cells harboring wild-type EGFR at 30 and 60 uM by immunoblotting analysis; format: functional, cell-based
NCI-H460 [17] = assay: Increase in PARP level in human NCI-H460 cells harboring wild-type EGFR at 30 and 60 uM by immunoblotting analysis; format: functional, cell-based
NCI-H1975 [18] = assay: Effect on ROS level in human NCI-H1975 cells harboring EGFR-mutant at 60 uM; format: functional, cell-based
NCI-H1650 [19] = assay: Effect on ROS level in human NCI-H1650 cells harboring EGFR-mutant at 60 uM; format: functional, cell-based
NCI-H1975 [20] = assay: Induction of apoptosis in human NCI-H1975 cells harboring EGFR-mutant assessed as cell death at 60 uM in presence of NAC; format: functional, cell-based
NCI-H1650 [21] = assay: Induction of apoptosis in human NCI-H1650 cells harboring EGFR-mutant assessed as cell death at 60 uM in presence of NAC; format: functional, cell-based
NCI-H1975 [22] = assay: Decrease in EGFR level in human NCI-H1975 cells harboring EGFR-mutant measured after 24 hrs by immunoblotting analysis; format: functional, cell-based
NCI-H1975 [23] = assay: Inhibition of EGFR mutant-mediated AKT phosphorylation in human NCI-H1975 cells harboring EGFR-mutant at 30 and 60 uM measured after 24 hrs by immunoblotting analysis; format: cell-based
NCI-H1975 [24] = assay: Inhibition of EGFR mutant-mediated ERK phosphorylation in human NCI-H1975 cells harboring EGFR-mutant at 30 and 60 uM measured after 24 hrs by immunoblotting analysis; format: cell-based
NCI-H1650 [25] = assay: Decrease in EGFR level in human NCI-H1650 cells harboring EGFR-mutant at 30 and 60 uM by […]; format: functional, cell-based
NCI-H1650 [26] = assay: Inhibition of EGFR mutant-mediated ERK phosphorylation in human NCI-H1650 cells harboring EGFR-mutant measured after 24 hrs by immunoblotting analysis; format: cell-based
A549 [27] = assay: Decrease in EGFR level in human A549 cells harboring wild-type EGFR at 30 and 60 uM measured after 24 hrs by immunoblotting analysis; format: functional, cell-based
[28] = molecular target: Epidermal growth factor receptor (Homo sapiens) (UniProt P00533); assay: Inhibition of EGFR-mediated AKT phosphorylation in human A549 cells harboring wild-type EGFR at 30 and 60 uM measured after 24 hrs by immunoblotting analysis; format: cell-based
Sequence of Epidermal growth factor receptor (Homo sapiens) (P00533 whole entry): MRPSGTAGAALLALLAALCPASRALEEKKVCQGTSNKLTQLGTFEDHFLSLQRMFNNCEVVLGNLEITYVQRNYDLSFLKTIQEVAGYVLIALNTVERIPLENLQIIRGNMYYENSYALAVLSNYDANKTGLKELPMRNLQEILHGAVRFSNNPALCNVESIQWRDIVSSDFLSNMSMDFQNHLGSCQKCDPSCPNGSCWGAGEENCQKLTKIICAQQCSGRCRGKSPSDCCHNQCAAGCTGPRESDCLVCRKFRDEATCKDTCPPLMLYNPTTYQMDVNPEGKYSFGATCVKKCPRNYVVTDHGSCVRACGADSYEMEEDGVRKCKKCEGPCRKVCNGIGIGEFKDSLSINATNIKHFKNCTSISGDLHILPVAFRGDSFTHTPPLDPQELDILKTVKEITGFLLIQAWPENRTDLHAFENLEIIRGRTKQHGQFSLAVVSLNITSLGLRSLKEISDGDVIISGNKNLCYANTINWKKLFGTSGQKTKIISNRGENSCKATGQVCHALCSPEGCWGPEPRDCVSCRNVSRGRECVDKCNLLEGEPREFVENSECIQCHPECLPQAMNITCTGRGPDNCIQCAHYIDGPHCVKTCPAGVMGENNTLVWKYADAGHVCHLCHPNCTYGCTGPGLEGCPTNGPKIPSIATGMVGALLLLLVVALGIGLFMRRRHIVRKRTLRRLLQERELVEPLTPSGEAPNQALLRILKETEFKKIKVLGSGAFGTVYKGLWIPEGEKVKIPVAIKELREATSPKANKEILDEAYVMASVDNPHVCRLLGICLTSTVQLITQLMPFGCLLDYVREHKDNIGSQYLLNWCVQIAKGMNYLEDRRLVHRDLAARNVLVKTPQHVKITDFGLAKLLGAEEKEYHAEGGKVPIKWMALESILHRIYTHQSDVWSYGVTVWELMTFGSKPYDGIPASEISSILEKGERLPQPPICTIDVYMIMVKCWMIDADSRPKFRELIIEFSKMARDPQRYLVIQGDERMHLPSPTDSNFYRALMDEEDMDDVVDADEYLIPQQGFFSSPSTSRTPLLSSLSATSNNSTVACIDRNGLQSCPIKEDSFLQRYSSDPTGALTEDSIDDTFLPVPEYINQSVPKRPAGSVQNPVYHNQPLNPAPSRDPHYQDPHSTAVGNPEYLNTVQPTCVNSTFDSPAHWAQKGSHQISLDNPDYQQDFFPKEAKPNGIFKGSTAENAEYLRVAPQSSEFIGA

[29] = molecular target: Epidermal growth factor receptor (Homo sapiens) (UniProt P00533); assay: Inhibition of EGFR-mediated ERK phosphorylation in human A549 cells harboring wild-type EGFR at 30 and 60 uM measured after 24 hrs by immunoblotting analysis; format: cell-based
NCI-H460 [30] = assay: Decrease in EGFR level in human NCI-H460 cells harboring wild-type EGFR at 30 and 60 uM measured after 24 hrs by immunoblotting analysis; format: functional, cell-based
[31] = molecular target: Epidermal growth factor receptor (Homo sapiens) (UniProt P00533); assay: Inhibition of EGFR-mediated AKT phosphorylation in human NCI-H460 cells harboring wild-type EGFR at 30 and 60 uM measured after 24 hrs by immunoblotting analysis; format: cell-based
[32] = molecular target: Epidermal growth factor receptor (Homo sapiens) (UniProt P00533); assay: Inhibition of EGFR-mediated ERK phosphorylation in human NCI-H460 cells harboring wild-type EGFR at 30 and 60 uM measured after 24 hrs by immunoblotting analysis; format: cell-based
NCI-H1975 [33] = assay: Effect on EGFR mRNA levels in human NCI-H1975 cells harboring EGFR-mutant at 30 uM by quantitative RT-PCR method; format: functional, cell-based
NCI-H1975 [34] = assay: Induction of EGFR turnover in human NCI-H1975 cells harboring EGFR-mutant at 60 uM measured after 24 hrs in presence of proteosome inhibitor bortezomib by immunoblotting analysis; format: functional, cell-based
PC-9 [35] = assay: Antiproliferative activity against human gefitinib-resistant PC9 cells harboring EGFR T790M mutant assessed as cell viability measured after 24 hrs; format: functional, cell-based
PC-9 [36] = assay: Antiproliferative activity against human erlotinib-resistant PC9 cells harboring EGFR T790M mutant assessed as cell viability measured after 24 hrs; format: functional, cell-based
PC-9 [37] = assay: Induction of apoptosis in human gefitinib-resistant PC9 cells harboring EGFR T790M mutant assessed as cell death at 30 and 60 uM measured after 24 hrs by Annexin-V/PI staining based analysis; format: functional
PC-9 [38] = assay: Induction of apoptosis in human erlotinib-resistant PC9 cells harboring EGFR T790M mutant assessed as cell death at 30 and 60 uM measured after 24 hrs by Annexin-V/PI staining based analysis; format: functional
PC-9 [39] = assay: Decrease in EGFR level in human gefitinib-resistant PC9 cells harboring EGFR T790M mutant at 30 and 60 uM measured after 24 hrs by immunoblotting analysis; format: functional, cell-based
PC-9 [40] = assay: Decrease in EGFR level in human erlotinib-resistant PC9 cells harboring EGFR T790M mutant at 30 and 60 uM measured after 24 hrs by immunoblotting analysis; format: functional, cell-based
PC-9 [41] = assay: Increase in cleaved caspase3 level in human gefitinib-resistant PC9 cells harboring EGFR T790M mutant at 30 and 60 uM by immunoblotting analysis; format: functional, cell-based
PC-9 [42] = assay: Increase in cleaved caspase3 level in human erlotinib-resistant PC9 cells harboring EGFR T790M mutant at 30 and 60 uM by immunoblotting analysis; format: functional, cell-based
PC-9 [43] = assay: Increase in PARP level in human gefitinib-resistant PC9 cells harboring EGFR T790M mutant at 30 and 60 uM by immunoblotting analysis; format: functional, cell-based
PC-9 [44] = assay: Increase in PARP level in human erlotinib-resistant PC9 cells harboring EGFR T790M mutant at 30 and 60 uM by immunoblotting analysis; format: functional, cell-based
NCI-H1975 [45] = assay: Induction of EGFR turnover in human NCI-H1975 cells harboring EGFR-mutant assessed as receptor half life […] at 60 uM in presence of cycloheximide by immunoblotting analysis; format: functional, cell-based

O=C(O)c1cc(O)c(O)c(O)c1
active: inhibition (NCI-H1650 [1]) | Activity (NCI-H1975 [2]) Dose-dependent effect | Activity (NCI-H1650 [3]) Dose-dependent effect | Activity (NCI-H1975 [6]) Dose-dependent effect | Activity (NCI-H1650 [7]) Dose-dependent effect | Activity (A549 [8]) | Activity (NCI-H460 [9]) | Activity (NCI-H1975 [10]) | Activity (NCI-H1650 [11]) | Activity (NCI-H1975 [14]) | Activity (NCI-H1650 [15]) | Activity (NCI-H1975 [20]) | Activity (NCI-H1650 [21]) | inhibition (NCI-H1975 [22]) Dose-dependent effect | inhibition (NCI-H1975 [23]) | inhibition (NCI-H1975 [24]) | inhibition (NCI-H1650 [25]) Dose-dependent effect | inhibition (NCI-H1650 [26]) | Activity (PC-9 [35]) Dose-dependent effect | Activity (PC-9 [36]) Dose-dependent effect | Activity (PC-9 [37]) | Activity (PC-9 [38]) | Activity (PC-9 [39]) | Activity (PC-9 [40]) | Activity (PC-9 [41]) | Activity (PC-9 [42]) | Activity (PC-9 [43]) | Activity (PC-9 [44])
inactive: Activity (A549 [4]) | Activity (NCI-H460 [5]) | Activity (A549 [12]) | Activity (NCI-H460 [13]) | Activity (A549 [16]) | Activity (NCI-H460 [17]) | Activity (NCI-H1975 [18]) | Activity (NCI-H1650 [19]) | inhibition (A549 [27]) | inhibition [28] | inhibition [29] | inhibition (NCI-H460 [30]) | inhibition [31] | inhibition [32] | Activity (NCI-H1975 [33]) | Activity (NCI-H1975 [34]) | Activity (NCI-H1975 [45])
